Earlier results as cited in patent publication US8383697B2 (priority 2009, dated 2013).

Legend:
rats = conditions: in vivo
[1] = in vivo

SMILES	Rat Oral LD50 (rats)	LD50 [1] [mg/kg]
CCCCCCCCCCCC(=O)OOC(=O)CCCCCCCCCCC [Initiator VIII, lauroyl peroxide]	10,000 mg/kg	
CC(C)(C)OOC(=O)c1ccccc1 [Initiator XI, tert-butyl peroxybenzoate]	4,160 mg/kg	
O=C(OOC(=O)c1ccccc1)c1ccccc1 [Initiator VII, benzoyl peroxide]	7,710 mg/kg	
CC(C)(C)OOC(C)(C)C [Initiator X, tert-butyl peroxide]	25,000 mg/kg	
CCO [ethanol]		7060
